{"source": "patent US20030191347A1", "about": "(priority 2002, published 2003)", "assay": "dissolution in water", "format": "physicochemical", "conditions": "stated in words only, no figure", "data": [{"smiles": "COc1ccc(C(CN(C)C)C2(O)CCCCC2)cc1", "note": "(stereo not shown) [venlafaxine base, 1-[2-(dimethylamino)-1-(4-methoxyphenyl)ethyl]cyclohexanol]", "values": [{"measurement": "dissolution in water", "value": "slow"}]}]}
